Source: DBAASP
Converted amounts (≈) assume the structure as drawn. Values belong to the molecule of their own block, whether it stands above or below them.

Columns and labels:
Experiment in all cases: ≥ marks a high value that may be exact or a test limit, other limits are often not marked, values filed in µg/mL are converted to µM
[1] = tested on: Cryptococcus neoformans ATCC 34881
[2] = tested on: Salmonella typhimurium
[3] = tested on: Saccharomyces cerevisiae
[4] = tested on: Pseudomonas putida ATCC 17426
[5] = tested on: Bacillus subtilis ATCC 62037
[6] = tested on: Staphylococcus aureus ATCC 15752
[7] = tested on: Cryptococcus neoformans
[8] = tested on: Bacillus subtilis
[9] = tested on: Pseudomonas putida
[10] = tested on: Candida albicans
[11] = tested on: Escherichia coli ATCC 27325
[12] = tested on: Streptococcus pneumoniae
[13] = tested on: Escherichia coli
[14] = tested on: Candida albicans ATCC 10231
[15] = tested on: Salmonella enterica subsp. enterica serovar Enteritidis ATCC 13076
[16] = tested on: Streptococcus mutans ATCC 25175
[17] = tested on: Staphylococcus aureus
[18] = tested on: Streptococcus mutans
[19] = tested on: Serratia marcescens
[20] = tested on: Saccharomyces cerevisiae ATCC 44774
[21] = tested on: Salmonella typhimurium KCTC 1926
[22] = tested on: Pseudomonas aeruginosa 4891
[23] = tested on: Escherichia coli ATCC 25922
[24] = tested on: Candida albicans KCTC 7270
[25] = tested on: Pseudomonas aeruginosa 4007
[26] = tested on: Staphylococcus aureus CCARM 3518
[27] = tested on: Staphylococcus aureus ATCC 25923
[28] = tested on: Listeria monocytogenes KCTC 3710
[29] = tested on: Staphylococcus aureus CCARM 3090
[30] = tested on: Trichosporon beigelii KCTC 7707
[31] = tested on: Bacillus subtilis KCTC 1998
[32] = tested on: Escherichia coli CCARM 1229
[33] = tested on: Escherichia coli CCARM 1238
[34] = tested on: Pseudomonas aeruginosa ATCC 27853
[35] = tested on: Staphylococcus aureus ATCC 33592
[36] = tested on: Bacillus megaterium Bm11
[37] = tested on: Salmonella enterica subsp. enterica serovar Typhimurium ATCC 14028
[38] = tested on: Proteus mirabilis
[39] = tested on: Escherichia coli ML-35
[40] = tested on: Salmonella enterica subsp. enterica serovar Pullorum C79-13
[41] = tested on: Escherichia coli UB1005
[42] = tested on: Bacillus subtilis CMCC 63501
[43] = tested on: Enterococcus faecalis ATCC 29212
[44] = tested on: Staphylococcus aureus ATCC 29213
[45] = tested on: Escherichia coli K88
[46] = tested on: Staphylococcus epidermidis ATCC 12228
[47] = tested on: Escherichia coli K99
[48] = tested on: Escherichia coli 078
[49] = tested on: Salmonella enterica subsp. enterica serovar Typhimurium C77-31

Structure (SMILES): CC(C)C[C@H](NC(=O)CNC(=O)[C@H](C)NC(=O)[C@@H](N)CCCN=C(N)N)C(=O)N[C@@H](CCC(N)=O)C(=O)N[C@@H](Cc1ccccc1)C(=O)N1CCC[C@H]1C(=O)N[C@H](C(=O)NCC(=O)N[C@@H](CCCN=C(N)N)C(=O)N[C@@H](CC(C)C)C(=O)N[C@@H](CC(C)C)C(=O)N[C@@H](CCCN=C(N)N)C(=O)N[C@@H](CCCN=C(N)N)C(=O)N[C@@H](CC(C)C)C(=O)N[C@@H](CC(C)C)C(=O)N[C@@H](CCCN=C(N)N)C(=O)N[C@@H](CCCN=C(N)N)C(=O)N[C@@H](CC(C)C)C(=O)N[C@@H](CC(C)C)C(=O)N[C@@H](CCCN=C(N)N)C(=O)O)C(C)C [RAGLQFPVGRLLRRLLRRLLR]
MIC [1]: 0.781 µM (≈ 2 µg/mL)
MIC [2]: 0.391 µM (≈ 1 µg/mL)
MIC [3]: 1.56 µM (≈ 4 µg/mL)
MIC [4]: 0.781 µM (≈ 2 µg/mL)
MIC [5]: 0.391 µM (≈ 1 µg/mL)
MIC [6]: 0.781 µM (≈ 2 µg/mL)
MIC [7]: 0.391 µM (≈ 1 µg/mL)
MIC [8]: 0.391 µM (≈ 1 µg/mL)
MIC [9]: 0.781 µM (≈ 2 µg/mL)
MIC [10]: 0.781 µM (≈ 2 µg/mL)
MIC [11]: 0.391 µM (≈ 1 µg/mL)
MIC [12]: 0.391 µM (≈ 1 µg/mL)
MIC [13]: 0.391 µM (≈ 1 µg/mL)
MIC [14]: 0.391 µM (≈ 1 µg/mL)
MIC [15]: 0.781 µM (≈ 2 µg/mL)
MIC [16]: 0.781 µM (≈ 2 µg/mL)
MIC [17]: 0.391 µM (≈ 1 µg/mL)
MIC [18]: 0.195 µM (≈ 0.5 µg/mL)
MIC [19]: 0.391 µM (≈ 1 µg/mL)
MIC [20]: 0.781 µM (≈ 2 µg/mL)

Structure (SMILES): CC(C)C[C@H](NC(=O)CNC(=O)[C@H](CCCCN)NC(=O)[C@@H](N)CCCN=C(N)N)C(=O)N[C@@H](CCC(N)=O)C(=O)N[C@@H](CCCCN)C(=O)N[C@@H](CC(C)C)C(=O)N[C@H](C(=O)NCC(=O)N[C@@H](CCCN=C(N)N)C(=O)N[C@H](C(=O)N[C@@H](Cc1cnc[nH]1)C(=O)N[C@@H](CCCN=C(N)N)C(=O)N[C@@H](CC(C)C)C(=O)N[C@@H](CC(C)C)C(=O)N[C@@H](CCCN=C(N)N)C(=O)N[C@@H](CCCCN)C(=O)O)C(C)C)C(C)C [RKGLQKLVGRVHRLLRK]
MIC [2]: 1.94 µM (≈ 4 µg/mL)
MIC [3]: 1.94 µM (≈ 4 µg/mL)
MIC [7]: 3.89 µM (≈ 8 µg/mL)
MIC [8]: 7.78 µM (≈ 16 µg/mL)
MIC [9]: 7.78 µM (≈ 16 µg/mL)
MIC [10]: 7.78 µM (≈ 16 µg/mL)
MIC [12]: 7.78 µM (≈ 16 µg/mL)
MIC [13]: 7.78 µM (≈ 16 µg/mL)
MIC [17]: 7.78 µM (≈ 16 µg/mL)
MIC [18]: 15.6 µM (≈ 32 µg/mL)
MIC [19]: 15.6 µM (≈ 32 µg/mL)

Structure (SMILES): CC[C@H](C)[C@H](NC(=O)[C@H](Cc1c[nH]c2ccccc12)NC(C)=O)C(=O)N[C@@H](CCCCN)C(=O)N[C@@H](CCCN=C(N)N)C(=O)N[C@@H](CC(C)C)C(=O)N[C@@H](CC(N)=O)C(=O)N[C@@H](CO)C(=O)N[C@@H](Cc1c[nH]c2ccccc12)C(=O)N[C@@H](CC(C)C)C(=O)N[C@@H](CCCN=C(N)N)C(=O)N[C@@H](CCCCN)C(N)=O [WIKRLNSWLRK]
MIC [35]: ≥ 32 µM

The remaining lines, values ahead:

MIC [21]: 16 µM (≈ 42 µg/mL)
MIC [22]: ≥ 64 µM
MIC [23]: 16 µM (≈ 42 µg/mL)
MIC [24]: ≥ 64 µM
MIC [25]: ≥ 64 µM
MIC [26]: ≥ 64 µM
MIC [27]: 32 µM (≈ 84 µg/mL)
MIC [28]: ≥ 32 µM
MIC [29]: ≥ 64 µM
MIC [30]: ≥ 64 µM
MIC [31]: ≥ 32 µM
MIC [32]: ≥ 32 µM
MIC [33]: ≥ 32 µM
MIC [34]: 16 µM (≈ 42 µg/mL)
Structure (SMILES): CC[C@H](C)[C@H](NC(=O)CNC(=O)[C@H](CCC(N)=O)NC(=O)[C@H](CO)NC(=O)[C@@H](NC(=O)[C@H](CCCCN)NC(=O)[C@H](CCCCN)NC(=O)[C@H](CC(C)C)NC(=O)[C@H](C)NC(=O)[C@H](CC(N)=O)NC(=O)[C@H](CC(C)C)NC(=O)CN)C(C)C)C(=O)N[C@@H](Cc1cnc[nH]1)C(=O)N[C@@H](CCC(=O)O)C(=O)N[C@@H](C)C(=O)N[C@H](C(=O)N[C@@H](CCCCN)C(=O)N[C@@H](CC(C)C)C(=O)N[C@H](C(=O)N[C@@H](CC(N)=O)C(=O)N[C@@H](CC(N)=O)C(=O)N[C@@H](Cc1cnc[nH]1)C(=O)N[C@H](C(=O)N[C@@H](CCC(N)=O)C(N)=O)C(C)C)[C@@H](C)CC)[C@@H](C)CC [GLNALKKVSQGIHEAIKLINNHVQ]

MIC [36]: 4 µM (≈ 7.95 µg/mL)
MIC [27]: 8 µM (≈ 15.9 µg/mL)
MIC [37]: 8 µM (≈ 15.9 µg/mL)
MIC [13]: 4 µM (≈ 7.95 µg/mL)
MIC [17]: 2 µM (≈ 3.98 µg/mL)
MIC [38]: ≥ 32 µM
MIC [39]: 8 µM (≈ 15.9 µg/mL)
Structure (SMILES): CC[C@H](C)[C@H](NC(=O)CN)C(=O)N[C@@H](CC(C)C)C(=O)N[C@@H](CO)C(=O)N[C@@H](CCCCN)C(=O)N[C@@H](CC(C)C)C(=O)NCC(=O)N[C@@H](CCCCN)C(=O)N[C@@H](C)C(=O)N[C@@H](CC(C)C)C(=O)N[C@@H](CCCCN)C(=O)N[C@@H](CCCCN)C(=O)N[C@@H](C)C(=O)N[C@@H](C)C(=O)N[C@@H](CCCCN)C(=O)N[C@@H](Cc1cnc[nH]1)C(=O)N[C@@H](C)C(=O)N[C@@H](C)C(=O)N[C@@H](CCCCN)C(=O)N[C@@H](C)C=O [GILSKLGKALKKAAKHAAKA]

MIC [40]: 1 µM (≈ 1.69 µg/mL)
MIC [23]: 2 µM (≈ 3.37 µg/mL)
MIC [27]: 2 µM (≈ 3.37 µg/mL)
MIC [37]: 2 µM (≈ 3.37 µg/mL)
MIC [41]: 1 µM (≈ 1.69 µg/mL)
MIC [42]: 1 µM (≈ 1.69 µg/mL)
MIC [43]: 2 µM (≈ 3.37 µg/mL)
MIC [44]: 4 µM (≈ 6.74 µg/mL)
MIC [45]: 2 µM (≈ 3.37 µg/mL)
MIC [46]: 4 µM (≈ 6.74 µg/mL)
MIC [47]: 2 µM (≈ 3.37 µg/mL)
MIC [48]: 2 µM (≈ 3.37 µg/mL)
MIC [49]: 4 µM (≈ 6.74 µg/mL)
Structure (SMILES): CC[C@H](C)[C@H](NC(=O)[C@H](Cc1c[nH]c2ccccc12)NC(=O)[C@H](CCCCN)NC(=O)[C@H](Cc1c[nH]c2ccccc12)NC(=O)[C@@H](NC(=O)[C@H](Cc1c[nH]c2ccccc12)NC(=O)CNC(=O)[C@@H](NC(=O)[C@H](CCCCN)NC(=O)[C@H](CCCCN)NC(=O)[C@H](Cc1c[nH]c2ccccc12)NC(=O)[C@@H](N)CCCN=C(N)N)[C@@H](C)CC)C(C)C)C(N)=O [RWKKIGWVWKWI]
